Data as given in ChEMBL document CHEMBL5329194, “Design, Synthesis, and Evaluation of 18F-Labeling CYP1B1 PET Tracer Based on 2-Phenylquinazolin” (Bioorg Med Chem Lett, 2023).

What was measured:
Assay type in all cases: ADME
Cytochrome P450 1A1 = target: T1, Cytochrome P450 1A1 (Homo sapiens, UniProt P04798); assay: Inhibition of CYP1A1 (unknown origin)
T1 sequence (P04798 whole entry): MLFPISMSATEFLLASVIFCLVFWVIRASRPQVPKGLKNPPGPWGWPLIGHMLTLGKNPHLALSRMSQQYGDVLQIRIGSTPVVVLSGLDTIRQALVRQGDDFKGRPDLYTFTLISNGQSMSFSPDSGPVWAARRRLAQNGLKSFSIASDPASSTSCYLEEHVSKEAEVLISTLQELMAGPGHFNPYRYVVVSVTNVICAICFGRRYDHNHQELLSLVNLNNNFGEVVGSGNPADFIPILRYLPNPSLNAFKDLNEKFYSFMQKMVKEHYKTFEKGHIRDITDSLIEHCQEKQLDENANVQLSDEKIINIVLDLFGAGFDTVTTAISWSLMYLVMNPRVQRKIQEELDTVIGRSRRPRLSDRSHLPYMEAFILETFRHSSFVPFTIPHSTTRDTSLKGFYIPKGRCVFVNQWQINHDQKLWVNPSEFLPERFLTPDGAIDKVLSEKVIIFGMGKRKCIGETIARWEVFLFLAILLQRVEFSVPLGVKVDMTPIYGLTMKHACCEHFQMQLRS

Cytochrome P450 1A2 = target: T2, Cytochrome P450 1A2 (Homo sapiens, UniProt P05177); assay: Inhibition of CYP1A2 (unknown origin)
T2 sequence (P05177 whole entry): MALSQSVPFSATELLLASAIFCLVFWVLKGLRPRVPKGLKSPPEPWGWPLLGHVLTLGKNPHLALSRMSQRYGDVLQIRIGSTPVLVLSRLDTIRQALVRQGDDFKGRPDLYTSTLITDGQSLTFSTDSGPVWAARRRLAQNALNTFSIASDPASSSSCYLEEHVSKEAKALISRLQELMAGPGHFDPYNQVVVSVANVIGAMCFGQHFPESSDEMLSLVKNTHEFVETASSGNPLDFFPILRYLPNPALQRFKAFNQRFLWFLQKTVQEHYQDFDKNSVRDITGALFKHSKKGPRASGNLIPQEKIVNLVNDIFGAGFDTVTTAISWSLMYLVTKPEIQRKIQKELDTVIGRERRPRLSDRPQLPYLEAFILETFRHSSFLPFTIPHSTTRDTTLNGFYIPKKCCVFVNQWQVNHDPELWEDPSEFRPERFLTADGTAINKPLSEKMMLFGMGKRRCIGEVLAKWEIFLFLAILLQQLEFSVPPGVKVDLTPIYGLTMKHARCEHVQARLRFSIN

Cytochrome P450 1B1 = target: T3, Cytochrome P450 1B1 (Homo sapiens, UniProt Q16678); assay: Inhibition of CYP1B1 (unknown origin) by EROD assay
T3 sequence (Q16678 whole entry): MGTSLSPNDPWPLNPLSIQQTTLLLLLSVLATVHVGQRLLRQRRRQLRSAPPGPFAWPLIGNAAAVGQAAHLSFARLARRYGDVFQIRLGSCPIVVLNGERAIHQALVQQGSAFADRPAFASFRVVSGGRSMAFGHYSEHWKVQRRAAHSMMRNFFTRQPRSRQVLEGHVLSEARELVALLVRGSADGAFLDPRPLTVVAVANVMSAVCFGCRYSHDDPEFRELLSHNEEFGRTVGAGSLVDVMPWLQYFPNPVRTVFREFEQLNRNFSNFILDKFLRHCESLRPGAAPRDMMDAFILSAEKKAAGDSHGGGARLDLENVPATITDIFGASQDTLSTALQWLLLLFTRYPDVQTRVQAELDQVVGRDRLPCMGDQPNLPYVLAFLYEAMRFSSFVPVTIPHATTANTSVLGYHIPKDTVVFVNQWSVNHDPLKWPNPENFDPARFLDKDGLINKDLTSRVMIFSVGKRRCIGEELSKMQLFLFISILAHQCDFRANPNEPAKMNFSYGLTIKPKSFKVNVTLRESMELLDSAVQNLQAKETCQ

Measured: IC50

Oc1nc(-c2ccc(F)cc2)nc2ccccc12
> 1 µM: Cytochrome P450 1A1 | Cytochrome P450 1A2 | Cytochrome P450 1B1
